Reference: patent US8192962B2, “Processes for detecting toxic substances” (Daikin Industries, Ltd., priority 2001, dated 2012)

System: Unknown protein yeast genes
Assay: DNA chip mRNA expression in yeast, unknown protein yeast genes (Table 1)
Type: cell-based, Saccharomyces cerevisiae S288C
Method: Yeast (Saccharomyces cerevisiae S288C (α SUC2mal mel gap2 CUP1)) were incubated at 25° C. on YPD medium (yeast extract 1%, polypepton 2%, glucose 2%). One of toxic chemical substances was added to the cells at logarithmic growth phase, and the cells were further incubated for two hours. Cells were cultured without any chemical substance in the same condition, and were used as control. Concentrations of the chemical substances were defined to inhibit the growth of the yeast but not lead to death.
After completion of the incubation, the culture was centrifuged to collect the cells. To the cells, sodium acetate buffer (50 mM sodium acetate, 10 mM EDTA, 1% SDS) was added, and the mixture was shaken at 65° C. for five minutes, followed by returning to room temperature, and obtaining the supernatant, of which the procedures were repeated two times. To the supernatant, ½ amount of a solution of phenol/chloroform was added, and the mixture was centrifuged to give a supernatant, which was added with an equal amount of chloroform, and the mixture was centrifuged to give a supernatant. To the supernatant, an equal amount of isopropanol containing 0.3 M sodium acetate was added, and the mixture was allowed to stand at room temperature for 30 minutes, after which the mixture was centrifuged to give a sediment of the whole RNAs. Seventy % ethanol was added to the sediment, and the mixture was again centrifuged to give a sediment, which was then dried and dissolved in water. mRNA was isolated from the whole RNAs as followings. In view of the fact that a poly A chain is attached to the 3′ terminus of mRNA, a polynucleotide having a poly T structure which was immobilized on the surface of latex beads was used to trap the mRNA, and then the mRNA was washed and eluted with spine column (Oligotex-dT30<Super>mRNA Purification Kit, Takara). Reverse transcription of the mRNA was conducted with a reverse transcriptase (Super Script II Reverse Transcriptase; catalogue No. 18064-014, GibcoBRL) using fluorescence-labeled nucleotides to give cDNAs that were introduced with Cy3-dUTP or Cy5-dUTP during the reverse transcription.
The labeled cDNAs were dissolved in TE buffer (10mM Tris-HCl/1 mM EDTA, pH8.0), and the solution was dropped on the DNA chip containing the whole genes of yeast (DNA Chip Research Inc. Japan) so that the cDNAs were hybridized on the DNA chip at 65° C. for over 12 hours. The fluoresces intensity of the DNA chip was read with a scanner, and the ratio relative to the fluorescence intensity resulting from the absence of chemical substance was estimated as the following, which is shown in Tables 1 to 9: […]

For `S=C([S-])NCCNC(=S)[S-].[Zn+2]` [(11), zinc N,N′-ethylenebis(dithiocarbamate)], the “The level of expressed mRNA in the presence of chemical substance/The level of expressed mRNA in the absence of chemical substance” value (yeast gene YAL053W, incubated two hours with chemical substance) was 2.3, the “The level of expressed mRNA in the presence of chemical substance/The level of expressed mRNA in the absence of chemical substance” value (yeast gene YBL048W) was 2.0 and the “The level of expressed mRNA in the presence of chemical substance/The level of expressed mRNA in the absence of chemical substance” value (yeast gene YBL107C) was 2.9. For the same molecule, the “The level of expressed mRNA in the presence of chemical substance/The level of expressed mRNA in the absence of chemical substance” value (yeast gene YDL072C, incubated two hours with chemical substance) was 1.4, the “The level of expressed mRNA in the presence of chemical substance/The level of expressed mRNA in the absence of chemical substance” value (yeast gene YDL204W, incubated two hours with chemical substance) was 3.2 and the “The level of expressed mRNA in the presence of chemical substance/The level of expressed mRNA in the absence of chemical substance” value (yeast gene YDL222C, incubated two hours with chemical substance) was 2.6. For the same molecule, the “The level of expressed mRNA in the presence of chemical substance/The level of expressed mRNA in the absence of chemical substance” value (yeast gene YDR330W, incubated two hours with chemical substance) was 0.9, the “The level of expressed mRNA in the presence of chemical substance/The level of expressed mRNA in the absence of chemical substance” value (yeast gene YDR391C, incubated two hours with chemical substance) was 1.9 and the “The level of expressed mRNA in the presence of chemical substance/The level of expressed mRNA in the absence of chemical substance” value (yeast gene YDR411C, incubated two hours with chemical substance) was 1.3. For the same molecule, the “The level of expressed mRNA in the presence of chemical substance/The level of expressed mRNA in the absence of chemical substance” value (yeast gene YDR511W, incubated two hours with chemical substance) was 1.2, the “The level of expressed mRNA in the presence of chemical substance/The level of expressed mRNA in the absence of chemical substance” value (yeast gene YDR545W, incubated two hours with chemical substance) was 0.7 and the “The level of expressed mRNA in the presence of chemical substance/The level of expressed mRNA in the absence of chemical substance” value (yeast gene YEL001C, incubated two hours with chemical substance) was 1.2. The “The level of expressed mRNA in the presence of chemical substance/The level of expressed mRNA in the absence of chemical substance” value (yeast gene YER004W, incubated two hours with chemical substance) was 2.2, the “The level of expressed mRNA in the presence of chemical substance/The level of expressed mRNA in the absence of chemical substance” value (yeast gene YER035W, incubated two hours with chemical substance) was 1.4 and the “The level of expressed mRNA in the presence of chemical substance/The level of expressed mRNA in the absence of chemical substance” value (yeast gene YER079W, incubated two hours with chemical substance) was 2.1. For the same molecule, the “The level of expressed mRNA in the presence of chemical substance/The level of expressed mRNA in the absence of chemical substance” value (yeast gene YER106W, incubated two hours with chemical substance) was 1.0, the “The level of expressed mRNA in the presence of chemical substance/The level of expressed mRNA in the absence of chemical substance” value (yeast gene YER158C, incubated two hours with chemical substance) was 2.3 and the “The level of expressed mRNA in the presence of chemical substance/The level of expressed mRNA in the absence of chemical substance” value (yeast gene YER163C, incubated two hours with chemical substance) was 1.6. For the same molecule, the “The level of expressed mRNA in the presence of chemical substance/The level of expressed mRNA in the absence of chemical substance” value (yeast gene YER175C, incubated two hours with chemical substance) was 1.1, the “The level of expressed mRNA in the presence of chemical substance/The level of expressed mRNA in the absence of chemical substance” value (yeast gene YFL006W, incubated two hours with chemical substance) was 1.2 and the “The level of expressed mRNA in the presence of chemical substance/The level of expressed mRNA in the absence of chemical substance” value (yeast gene YFL010C, incubated two hours with chemical substance) was 1.4. For the same molecule, the “The level of expressed mRNA in the presence of chemical substance/The level of expressed mRNA in the absence of chemical substance” value (yeast gene YFL024C) was 0.6, the “The level of expressed mRNA in the presence of chemical substance/The level of expressed mRNA in the absence of chemical substance” value (yeast gene YFL032W, incubated two hours with chemical substance) was 1.1 and the “The level of expressed mRNA in the presence of chemical substance/The level of expressed mRNA in the absence of chemical substance” value (yeast gene YGL037C, incubated two hours with chemical substance) was 3.9. For the same molecule, the “The level of expressed mRNA in the presence of chemical substance/The level of expressed mRNA in the absence of chemical substance” value (yeast gene YGL047W, incubated two hours with chemical substance) was 1.9, the “The level of expressed mRNA in the presence of chemical substance/The level of expressed mRNA in the absence of chemical substance” value (yeast gene YGL053W, incubated two hours with chemical substance) was 1.3 and the “The level of expressed mRNA in the presence of chemical substance/The level of expressed mRNA in the absence of chemical substance” value (yeast gene YGL121C) was 6.1. The “The level of expressed mRNA in the presence of chemical substance/The level of expressed mRNA in the absence of chemical substance” value (yeast gene YGL218W) was 0.1, the “The level of expressed mRNA in the presence of chemical substance/The level of expressed mRNA in the absence of chemical substance” value (yeast gene YGR101W, incubated two hours with chemical substance) was 2.0 and the “The level of expressed mRNA in the presence of chemical substance/The level of expressed mRNA in the absence of chemical substance” value (yeast gene YGR110W) was 0.5. The “The level of expressed mRNA in the presence of chemical substance/The level of expressed mRNA in the absence of chemical substance” value (yeast gene YGR130C, incubated two hours with chemical substance) was 0.8, the “The level of expressed mRNA in the presence of chemical substance/The level of expressed mRNA in the absence of chemical substance” value (yeast gene YGR142W) was 2.3 and the “The level of expressed mRNA in the presence of chemical substance/The level of expressed mRNA in the absence of chemical substance” value (yeast gene YGR154C, incubated two hours with chemical substance) was 1.5. The “The level of expressed mRNA in the presence of chemical substance/The level of expressed mRNA in the absence of chemical substance” value (yeast gene YGR221C, incubated two hours with chemical substance) was 0.5, the “The level of expressed mRNA in the presence of chemical substance/The level of expressed mRNA in the absence of chemical substance” value (yeast gene YHR138C, incubated two hours with chemical substance) was 1.6 and the “The level of expressed mRNA in the presence of chemical substance/The level of expressed mRNA in the absence of chemical substance” value (yeast gene YHR199C, incubated two hours with chemical substance) was 1.9. For the same molecule, the “The level of expressed mRNA in the presence of chemical substance/The level of expressed mRNA in the absence of chemical substance” value (yeast gene YIL023C, incubated two hours with chemical substance) was 1.1, the “The level of expressed mRNA in the presence of chemical substance/The level of expressed mRNA in the absence of chemical substance” value (yeast gene YIL041W, incubated two hours with chemical substance) was 1.4 and the “The level of expressed mRNA in the presence of chemical substance/The level of expressed mRNA in the absence of chemical substance” value (yeast gene YIL087C, incubated two hours with chemical substance) was 2.8. For the same molecule, the “The level of expressed mRNA in the presence of chemical substance/The level of expressed mRNA in the absence of chemical substance” value (yeast gene YIL089W) was 0.7, the “The level of expressed mRNA in the presence of chemical substance/The level of expressed mRNA in the absence of chemical substance” value (yeast gene YJL057C, incubated two hours with chemical substance) was 2.0 and the “The level of expressed mRNA in the presence of chemical substance/The level of expressed mRNA in the absence of chemical substance” value (yeast gene YJL066C, incubated two hours with chemical substance) was 0.8. The “The level of expressed mRNA in the presence of chemical substance/The level of expressed mRNA in the absence of chemical substance” value (yeast gene YJL082W, incubated two hours with chemical substance) was 1.0, the “The level of expressed mRNA in the presence of chemical substance/The level of expressed mRNA in the absence of chemical substance” value (yeast gene YJL151C, incubated two hours with chemical substance) was 1.0 and the “The level of expressed mRNA in the presence of chemical substance/The level of expressed mRNA in the absence of chemical substance” value (yeast gene YJL152W, incubated two hours with chemical substance) was 1.0. For the same molecule, the “The level of expressed mRNA in the presence of chemical substance/The level of expressed mRNA in the absence of chemical substance” value (yeast gene YJL161W, incubated two hours with chemical substance) was 3.7, the “The level of expressed mRNA in the presence of chemical substance/The level of expressed mRNA in the absence of chemical substance” value (yeast gene YJL171C, incubated two hours with chemical substance) was 2.2 and the “The level of expressed mRNA in the presence of chemical substance/The level of expressed mRNA in the absence of chemical substance” value (yeast gene YJR008W, incubated two hours with chemical substance) was 1.4. For the same molecule, the “The level of expressed mRNA in the presence of chemical substance/The level of expressed mRNA in the absence of chemical substance” value (yeast gene YJR054W, incubated two hours with chemical substance) was 0.7, the “The level of expressed mRNA in the presence of chemical substance/The level of expressed mRNA in the absence of chemical substance” value (yeast gene YKL071W) was 40.3 and the “The level of expressed mRNA in the presence of chemical substance/The level of expressed mRNA in the absence of chemical substance” value (yeast gene YKL086W, incubated two hours with chemical substance) was 0.7. The “The level of expressed mRNA in the presence of chemical substance/The level of expressed mRNA in the absence of chemical substance” value (yeast gene YKL151C, incubated two hours with chemical substance) was 2.3.
